Legend:
Assay type in all cases: in vivo
oat, wild (Avena fatua) = assay: Test C pre-/postemergence greenhouse test; conditions: scale 0 to 100
Summary of the method: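 Visual 0–100 rating (0 = no effect, 100 = complete control) against controls, 13 to 21 d after treatment in greenhouse. Preemergence: seeds in silt loam soil. Postemergence: plants at 1- to 4-leaf stage (2 to 18 cm) in peat-based medium; compounds in surfactant-containing solvent mixture.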

[1] = system: chickweed (common chickweed, Stellaria media); assay: Test C postemergence greenhouse test; conditions: scale 0 to 100
Description: (§1) Seeds of plant species selected from blackgrass (Alopecurus myosuroides), ryegrass, Italian (Lolium multiflorum), wheat, winter (winter wheat, Triticum aestivum), galium (catchweed bedstraw, Galium aparine), corn (Zea mays), crabgrass, large (Digitaria sanguinalis), foxtail, giant (Setaria faberii), johnsongrass (Sorghum halepense), lambsquarters (Chenopodium album), morningglory (Ipomoea coccinea), nutsedge, yellow (Cyperus esculentus), pigweed (Amaranthus retroflexus), ragweed (common ragweed, Ambrosia elatior), soybean (Glycine max), barnyardgrass (Echinochloa crus-galli), oilseed rape (Brassica napus), waterhemp (common waterhemp, Amaranthus rudis), pigweed, palmer (Amaranthus palmeri), kochia (Kochia scoparia), oat, wild (Avena fatua), surinam grass (Brachiaria decumbens), windgrass (Apera spica-venti), poinsettia, wild (Euphorbia heterophylla) and velvetleaf (Abutilon theophrasti) were planted into a silt loam soil and treated preemergence with test chemicals formulated in a non-phytotoxic solvent mixture which included a surfactant.
(§2) At the same time, plants selected from these crop and weed species and also chickweed (common chickweed, Stellaria media), buckwheat, wild (Polygonum convolvulus), mustard, wild (Sinapis arvensis), field poppy (Papaver rhoeas), field violet (Viola arvensis), nightshade (eastern black nightshade, Solanum ptycanthum), speedwell (bird's-eye speedwell, Veronica persica), horseweed (Conyza canadensis), cutleaf geranium (Geranium dissectum), and Canada thistle (Cirsium arvense) were planted in pots containing Redi-Earth® planting medium (Scotts Company, 14111 Scottslawn Road, Marysville, Ohio 43041) comprising spaghnum peat moss, vermiculite, wetting agent and starter nutrients and treated with postemergence applications of test chemicals formulated in the same manner. Plants ranged in height from 2 to 18 cm (1- to 4-leaf stage) for postemergence treatments. Treated plants and controls were maintained in a greenhouse for 13 to 21 d, after which time all species were compared to controls and visually evaluated. Plant response ratings, summarized in Table C-1 (postemergence) and C-2 (preemergence), are based on a scale of 0 to 100 where 0 is no effect and 100 is complete control. A dash (-) response means no test result.

[2] = system: wheat (Triticum aestivum); assay: Test A postemergence greenhouse test
Description: (§3) Seeds of plant species selected from barnyardgrass (Echinochloa crus-galli), kochia (Kochia scoparia), ragweed (common ragweed, Ambrosia elatior), ryegrass, Italian (Lolium multiflorum), foxtail, giant (Setaria faberii), foxtail, green (Setaria viridis) and pigweed (Amaranthus retroflexus) were planted into a blend of loam soil and sand and treated preemergence with a directed soil spray using test chemicals formulated in a non-phytotoxic solvent mixture which included a surfactant.
(§4) At the same time, plants selected from these weed species and also wheat (Triticum aestivum), corn (Zea mays), blackgrass (Alopecurus myosuroides) and galium (catchweed bedstraw, Galium aparine) were planted in pots containing the same blend of loam soil and sand and treated with postemergence applications of test chemicals formulated in the same manner. Plants ranged in height from 2 to 10 cm and were in the one- to two-leaf stage for the postemergence treatment. Treated plants and untreated controls were maintained in a greenhouse for approximately 10 d, after which time all treated plants were compared to untreated controls and visually evaluated for injury. Plant response ratings, summarized in Table A, are based on a 0 to 100 scale where 0 is no effect and 100 is complete control. A dash (-) response means no test result.

[3] = system: galium (catchweed bedstraw, Galium aparine); assay: Test A postemergence greenhouse test
Description: as §3, §4

corn (Zea mays) = assay: Test A postemergence greenhouse test
Description: as §3, §4

[4] = system: blackgrass (Alopecurus myosuroides); assay: Test A postemergence greenhouse test
Description: as §3, §4

kochia (Kochia scoparia) = assay: Test A pre-/postemergence greenhouse test
Description: as §3, §4

[5] = system: barnyardgrass (Echinochloa crus-galli); assay: Test A pre-/postemergence greenhouse test
Description: as §3, §4

[6] = system: pigweed (Amaranthus retroflexus); assay: Test A pre-/postemergence greenhouse test
Description: as §3, §4

[7] = system: ryegrass, Italian (Lolium multiflorum); assay: Test A pre-/postemergence greenhouse test
Description: as §3, §4

[8] = system: ragweed (common ragweed, Ambrosia elatior); assay: Test A pre-/postemergence greenhouse test
Description: as §3, §4

[9] = system: field poppy (Papaver rhoeas); assay: Test C postemergence greenhouse test; conditions: scale 0 to 100
Description: as §1, §2

Cc1ccc2ccc(C)c(-c3c(O)c(Cl)nn(C)c3=O)c2c1 [Cpd. No. 20, 6-chloro-4-(2,7-dimethyl-1-naphthalenyl)-5-hydroxy-2-methyl-3(2H)-pyridazinone]
70: Plant response rating, Oat, Wild (oat, wild (Avena fatua); Postemergence, 62 g ai/ha) | Plant response rating (0 to 100 scale) (kochia (Kochia scoparia); Postemergence, 31 g ai/ha) | Plant response rating (0 to 100 scale) ([5]; Preemergence, 31 g ai/ha)
98: Plant response rating, Chickweed ([1]; 125 g ai/ha)
80: Plant response rating (0 to 100 scale) ([5]; Postemergence, 31 g ai/ha)
30: Plant response rating (0 to 100 scale) ([2]; 125 g ai/ha) | Plant response rating (0 to 100 scale) (corn (Zea mays); 31 g ai/ha) | Plant response rating (0 to 100 scale) (corn (Zea mays); 125 g ai/ha) | Plant response rating (0 to 100 scale) (kochia (Kochia scoparia); Preemergence, 31 g ai/ha)
100: Plant response rating (0 to 100 scale) ([3]; 125 g ai/ha) | Plant response rating (0 to 100 scale) ([5]; Postemergence, 125 g ai/ha) | Plant response rating (0 to 100 scale) ([5]; Preemergence, 125 g ai/ha) | Plant response rating (0 to 100 scale) ([6]; Postemergence, 125 g ai/ha) | Plant response rating (0 to 100 scale) ([6]; Preemergence, 31 g ai/ha) | Plant response rating (0 to 100 scale) ([6]; Preemergence, 125 g ai/ha) | Plant response rating (0 to 100 scale) ([7]; Postemergence, 125 g ai/ha) | Plant response rating (0 to 100 scale) ([7]; Preemergence, 125 g ai/ha)
0: Plant response rating (0 to 100 scale) ([4]; 31 g ai/ha)
95: Plant response rating, Chickweed ([1]; 16 g ai/ha) | Plant response rating, Chickweed ([1]; 31 g ai/ha) | Plant response rating, Chickweed ([1]; 62 g ai/ha)
55: Plant response rating, Oat, Wild (oat, wild (Avena fatua); Postemergence, 31 g ai/ha)
90: Plant response rating, Oat, Wild (oat, wild (Avena fatua); Postemergence, 125 g ai/ha) | Plant response rating (0 to 100 scale) ([3]; 31 g ai/ha) | Plant response rating (0 to 100 scale) (kochia (Kochia scoparia); Postemergence, 125 g ai/ha) | Plant response rating (0 to 100 scale) (kochia (Kochia scoparia); Preemergence, 125 g ai/ha) | Plant response rating (0 to 100 scale) ([6]; Postemergence, 31 g ai/ha) | Plant response rating (0 to 100 scale) ([7]; Postemergence, 31 g ai/ha) | Plant response rating (0 to 100 scale) ([7]; Preemergence, 31 g ai/ha) | Plant response rating (0 to 100 scale) ([8]; Postemergence, 31 g ai/ha) | Plant response rating (0 to 100 scale) ([8]; Postemergence, 125 g ai/ha) | Plant response rating (0 to 100 scale) ([8]; Preemergence, 125 g ai/ha)
60: Plant response rating (0 to 100 scale) ([4]; 125 g ai/ha)
20: Plant response rating (0 to 100 scale) ([2]; 31 g ai/ha) | Plant response rating (0 to 100 scale) ([8]; Preemergence, 31 g ai/ha)
35: Plant response rating, Oat, Wild (oat, wild (Avena fatua); Postemergence, 16 g ai/ha)

Cc1ccc2ccc(Cl)cc2c1-c1c(O)c(Cl)nn(C)c1=O [Cpd. No. 22]
60: Plant response rating (0 to 100 scale) (kochia (Kochia scoparia); Postemergence, 31 g ai/ha)
95: Plant response rating, Oat, Wild (oat, wild (Avena fatua); Preemergence, 125 g ai/ha)
75: Plant response rating, Field Poppy ([9]; 16 g ai/ha) | Plant response rating, Field Poppy ([9]; 31 g ai/ha) | Plant response rating, Field Poppy ([9]; 62 g ai/ha)
100: Plant response rating, Oat, Wild (oat, wild (Avena fatua); Postemergence, 31 g ai/ha) | Plant response rating, Oat, Wild (oat, wild (Avena fatua); Postemergence, 62 g ai/ha) | Plant response rating, Oat, Wild (oat, wild (Avena fatua); Postemergence, 125 g ai/ha) | Plant response rating, Field Poppy ([9]; 125 g ai/ha) | Plant response rating, Chickweed ([1]; 16 g ai/ha) | Plant response rating, Chickweed ([1]; 62 g ai/ha) | Plant response rating, Chickweed ([1]; 125 g ai/ha) | Plant response rating (0 to 100 scale) ([2]; 31 g ai/ha) | Plant response rating (0 to 100 scale) ([2]; 125 g ai/ha) | Plant response rating (0 to 100 scale) ([3]; 31 g ai/ha) | Plant response rating (0 to 100 scale) ([3]; 125 g ai/ha) | Plant response rating (0 to 100 scale) ([4]; 125 g ai/ha) | Plant response rating (0 to 100 scale) (kochia (Kochia scoparia); Postemergence, 125 g ai/ha) | Plant response rating (0 to 100 scale) ([5]; Postemergence, 31 g ai/ha) | Plant response rating (0 to 100 scale) ([5]; Postemergence, 125 g ai/ha) | Plant response rating (0 to 100 scale) ([5]; Preemergence, 31 g ai/ha) | Plant response rating (0 to 100 scale) ([5]; Preemergence, 125 g ai/ha) | Plant response rating (0 to 100 scale) ([6]; Postemergence, 31 g ai/ha) | Plant response rating (0 to 100 scale) ([6]; Postemergence, 125 g ai/ha) | Plant response rating (0 to 100 scale) ([6]; Preemergence, 31 g ai/ha) | Plant response rating (0 to 100 scale) ([6]; Preemergence, 125 g ai/ha) | Plant response rating (0 to 100 scale) ([7]; Postemergence, 31 g ai/ha) | Plant response rating (0 to 100 scale) ([7]; Postemergence, 125 g ai/ha) | Plant response rating (0 to 100 scale) ([7]; Preemergence, 125 g ai/ha) | Plant response rating (0 to 100 scale) ([8]; Postemergence, 31 g ai/ha) | Plant response rating (0 to 100 scale) ([8]; Postemergence, 125 g ai/ha) | Plant response rating (0 to 100 scale) ([8]; Preemergence, 31 g ai/ha) | Plant response rating (0 to 100 scale) ([8]; Preemergence, 125 g ai/ha)
98: Plant response rating, Oat, Wild (oat, wild (Avena fatua); Postemergence, 16 g ai/ha) | Plant response rating, Chickweed ([1]; 31 g ai/ha)
10: Plant response rating (0 to 100 scale) (corn (Zea mays); 125 g ai/ha) | Plant response rating (0 to 100 scale) (kochia (Kochia scoparia); Preemergence, 31 g ai/ha)
70: Plant response rating (0 to 100 scale) ([4]; 31 g ai/ha)
30: Plant response rating, Oat, Wild (oat, wild (Avena fatua); Preemergence, 31 g ai/ha)
0: Plant response rating, Oat, Wild (oat, wild (Avena fatua); Preemergence, 61 g ai/ha) | Plant response rating (0 to 100 scale) (corn (Zea mays); 31 g ai/ha)
45: Plant response rating, Oat, Wild (oat, wild (Avena fatua); Preemergence, 62 g ai/ha)
90: Plant response rating (0 to 100 scale) (kochia (Kochia scoparia); Preemergence, 125 g ai/ha) | Plant response rating (0 to 100 scale) ([7]; Preemergence, 31 g ai/ha)
